Counter-ions that a name gives are not always drawn.
Assays:
[1] = biological target: T1, V2 Receptor (Rattus norvegicus, UniProt Q00788); assay: V2 Receptor Binding Assay ([3H]-Arg-vasopressin, rat kidney plasma membrane); details: 4° C., pH 8.0
T1 construct: rat kidney plasma membrane preparations; from tissue; host or cells: rat kidney plasma membranes
Protocol: Chem., 253, 3211 (1978)], the plasma membrane (100000 dpm, 4×10^-10M) of [^3 H]-Arg-vasopressin and a test compound (0.6 mg, 10^-10 -10^-5 M) are incubated at 4° C. for 3 hours in 100 mM Tris-HCl buffer pH: 8.0 (250 μl ) containing 5 mM MgCl2, 1 mM EDTA and 0.1 % BSA. After incubation, the mixture is filtered using the glass filter (GF/F) so as to separate the membrane preparation combining with vasopressin and then washed twice with the buffer (5 ml). This glass filter is taken out and mixed with liquid scintillation cocktail. The amount of [^3 H]-vasopressin combining with the membrane is measured by liquid scintillation counter and the rate of the inhibitory effect of the test compound is estimated according to the following equation. [formula]
(§1) C1 : The amount of [^3 H]-vasopressin combining with the membrane in the presence of the test compound of a known amount.
(§2) C0 : The amount of [^3 H]-vasopressin combining with the membrane in the absence of the test compound.
B1 : The amount of [3H-vasopressin combining with the membrane in the presence of the excess amount of vasopressin (10^-6 M).
(§3) The results are expressed as IC50 value, which is the concentration of the test compound required to achieve the inhibitory effect in the rate of 50%.

[2] = biological target: V1 Receptor (Rattus norvegicus, UniProt P30560); assay: V1 Receptor Binding Assay ([3H]-Arg-vasopressin, rat liver plasma membrane); details: 37° C., 10 minutes, pH 8.0
Chain of V1 Receptor (P30560 whole entry): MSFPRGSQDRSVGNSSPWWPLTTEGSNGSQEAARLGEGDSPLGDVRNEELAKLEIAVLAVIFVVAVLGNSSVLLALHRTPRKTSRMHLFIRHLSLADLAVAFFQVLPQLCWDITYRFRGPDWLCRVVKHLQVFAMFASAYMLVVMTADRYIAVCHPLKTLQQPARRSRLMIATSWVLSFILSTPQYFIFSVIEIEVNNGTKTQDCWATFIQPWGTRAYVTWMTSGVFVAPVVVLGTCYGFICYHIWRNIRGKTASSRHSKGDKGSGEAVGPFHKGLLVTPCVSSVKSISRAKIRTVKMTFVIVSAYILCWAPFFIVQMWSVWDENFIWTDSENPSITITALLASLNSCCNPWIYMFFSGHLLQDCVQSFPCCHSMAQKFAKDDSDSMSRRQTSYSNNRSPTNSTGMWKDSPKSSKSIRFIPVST
Protocol: After incubation, the mixture is filtered three times using the glass filter (GF/F) so as to separate the membrane preparation combining with vasopressin and then washed with the buffer (5 ml). This glass filter is taken out and mixed with liquid scintillation cocktail. The amount of [^3 H]-vasopressin combining with the membrane is measured by liquid scintillation counter and the rate of the inhibitory effect of the test compound is estimated according to the following equation.
as §1, §2
B1 : The amount of [^3 H]-vasopressin combining with the membrane in the presence of the excess amount of vasopressin (10^-6 M).
as §3

T1 sequence (Q00788 whole entry): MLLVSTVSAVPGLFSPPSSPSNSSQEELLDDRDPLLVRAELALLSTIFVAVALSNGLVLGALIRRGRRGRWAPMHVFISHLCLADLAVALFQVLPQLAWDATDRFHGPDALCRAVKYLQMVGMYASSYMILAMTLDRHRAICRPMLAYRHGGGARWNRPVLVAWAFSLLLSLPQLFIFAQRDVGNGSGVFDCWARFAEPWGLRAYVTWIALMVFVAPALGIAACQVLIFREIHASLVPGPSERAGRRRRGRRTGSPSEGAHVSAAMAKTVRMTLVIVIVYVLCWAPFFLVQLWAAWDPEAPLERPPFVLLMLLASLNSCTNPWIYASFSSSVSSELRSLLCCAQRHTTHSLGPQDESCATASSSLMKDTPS

Structure (SMILES): COc1cc(C(=O)N2CCCC(CC#N)c3cc(Cl)ccc32)ccc1NC(=O)c1ccccc1C (stereo not shown) [Test Compound 39, 5-Cyanomethyl-7-chloro-1-[3-methoxy-4-(2-methylbenzoylamino)benzoyl]-2,3,4,5-tetrahydro-1H-benzazepine]
- IC50 [1]: 14 nM
- IC50 [2]: 44 nM

Structure (SMILES): COc1cc(NC(=O)c2ccccc2C)ccc1C(=O)N1CCCC(OCCN2CCN(C(C)=O)CC2)c2cc(Cl)ccc21 (stereo not shown) [Test Compound 40, 5-[2-(4-Acetyl-1-piperazinyl)ethoxy]-7-chloro-1-[2-methoxy-4-(2-methylbenzoylamino)benzoyl]-2,3,4,5-tetrahydro-1H-benzazepine hydrochloride]
- IC50 [1]: 7 nM
- IC50 [2]: 73 nM

Structure (SMILES): CNC(=O)CC1CCCN(C(=O)c2ccc(NC(=O)c3ccccc3C)cc2OC)c2ccc(F)cc21 (stereo not shown) [Test Compound 42, 5-Methylaminocarbonylmethyl-7-fluoro-1-[2-methoxy-4-(2-methylbenzoylamino)benzoyl]-2,3,4,5-tetrahydro-1H-benzazepine]
- IC50 [1]: 6 nM
- IC50 [2]: 160 nM

Structure (SMILES): COc1cc(NC(=O)c2ccccc2C)ccc1C(=O)N1CCCC(OCCN2CCNCC2)c2cc(Cl)ccc21 (stereo not shown) [Test Compound 43, 5-[2-(1-Piperazinyl)ethoxy]-7-chloro-1-[2-methoxy-4-(2-methylbenzoylamino)benzoyl]-2,3,4,5-tetrahydro-1H-benzazepine dihydrochloride]
- IC50 [1]: 6 nM
- IC50 [2]: 70 nM

Structure (SMILES): COc1cc(NC(=O)c2ccccc2Cl)ccc1C(=O)N1CCCC(CC(=O)N2CCN(C)CC2)c2cc(Cl)ccc21 (stereo not shown) [Test Compound 44, 5-[(4-Methyl-1-piperazinyl)carbonylmethyl]-7-chloro-1-[2-methoxy-4-(2-chlorobenzoylamino)benzoyl]-2,3,4,5-tetrahydro-1H-benzazepine hydrochloride]
- IC50 [1]: 6 nM
- IC50 [2]: 24 nM

Structure (SMILES): COc1cc(NC(=O)c2ccccc2Cl)ccc1C(=O)N1CCCC(CC(=O)N2CCC(N(C)C)CC2)c2cc(Cl)ccc21 (stereo not shown) [Test Compound 45, 5-[(4-Dimethylamino-1-piperidinyl)carbonylmethyl]-7-chloro-1-[2-methoxy-4-(2-chlorobenzoylamino)benzoyl]-2,3,4,5-tetrahydro-1H-benzazepine hydrochloride]
- IC50 [1]: 4 nM
- IC50 [2]: 8 nM

Structure (SMILES): COc1cc(NC(=O)c2ccccc2C)ccc1C(=O)N1CCCC(CN2CCN(C)CC2)c2cc(F)ccc21 (stereo not shown) [Test Compound 46, 5-[(4-Methyl-I-piperazinyl)methyl]-7-fluoro-1-[2-methoxy-4-(2-methylbenzoylamino)benzoyl]-2,3,4,5-tetrahydro-1H-benzazepine]
- IC50 [1]: 9 nM
- IC50 [2]: 89 nM

Structure (SMILES): COc1cc(NC(=O)c2ccccc2C)ccc1C(=O)N1CCCC(OCCN2CCN(C)CC2)c2cc(F)ccc21 (stereo not shown) [Test Compound 47, 5-[2-(4-Methyl-1-piperazinyl)ethoxy]-7-fluoro-1-[2-methoxy-4-(2-methylbenzoylamino)benzoyl]-2,3,4,5-tetrahydro-1H-benzazepine]
- IC50 [1]: 8 nM
- IC50 [2]: 330 nM

Structure (SMILES): COc1cc(NC(=O)c2ccccc2Cl)ccc1C(=O)N1CCCC(CC(=O)NC2CCN(Cc3ccccc3)CC2)c2cc(Cl)ccc21 (stereo not shown) [Test Compound 48, 5-[(1-Benzyl-4-piperidinyl)aminocarbonylmethyl]-7-chloro-1-[2-methoxy-4-(2-chlorobenzoylamino)benzoyl]-2,3,4,5-tetrahydro-1H-benzazepine hydrochloride]
- IC50 [1]: 12 nM
- IC50 [2]: 37 nM

Structure (SMILES): Cc1ccccc1C(=O)Nc1ccc(C(=O)N2CCCC(CC(=O)N3CCCC3)c3cc(F)ccc32)cc1 (stereo not shown) [Test Compound 50, 5-[(1-Pyrrolidinyl)carbonylmethyl]-7-fluoro-1-[4-(2-methylbenzoylamino)benzoyl]-2,3,4,5-tetrahydro-1H-benzazepine]
- IC50 [1]: 15 nM
- IC50 [2]: 110 nM

Structure (SMILES): COc1cc(NC(=O)c2ccccc2Br)ccc1C(=O)N1CCCC(CC(=O)N(C)C)c2cc(F)ccc21 (stereo not shown) [Test Compound 51, 5-Dimethylaminocarbonylmethyl-7-fluoro-1-[2-methoxy-4-(2-bromobenzoylamino)benzoyl]-2,3,4,5-tetrahydro-1H-benzazepine]
- IC50 [1]: 3 nM
- IC50 [2]: 18 nM

Structure (SMILES): COc1cc(NC(=O)c2ccccc2C)ccc1C(=O)N1CCCC(CC(=O)N2CCNCC2)c2cc(Cl)ccc21 (stereo not shown) [Test Compound 52, 5-[(1-Piperazinyl)carbonylmethyl]-7-chloro-1-[2-methoxy-4-(2-methylbenzoylamino)benzoyl]-2,3,4,5-tetrahydro-1H-benzazepine hydrochloride]
- IC50 [1]: 6 nM
- IC50 [2]: 16 nM

Structure (SMILES): COc1cc(NC(=O)c2ccccc2C)ccc1C(=O)N1CCCC(CCN2CCC(N(C)C)CC2)c2cc(Cl)ccc21 (stereo not shown) [Test Compound 54, 5-[2-(4-Dimethylamino-1-piperidinyl)ethyl]-7-chloro-1-[2-methoxy-4-(2-methylbenzoylamino)benzoyl]-2,3,4,5-tetrahydro-1H-benzazepine dihydrochloride]
- IC50 [1]: 4 nM
- IC50 [2]: 54 nM

Structure (SMILES): COc1cc(NC(=O)c2ccccc2C)ccc1C(=O)N1CCCC(CCN2CCN(C)CC2)c2cc(Cl)ccc21 (stereo not shown) [Test Compound 55, 5-[2-(4-Methyl-1-piperazinyl)ethyl]-7-chloro-1-[2-methoxy-4-(2-methylbenzoylamino)benzoyl]-2,3,4,5-tetrahydro-1H-benzazepine dihydrochloride]
- IC50 [1]: 12 nM
- IC50 [2]: 62 nM

Structure (SMILES): COc1cc(NC(=O)c2ccccc2C)ccc1C(=O)N1CCCC(CC(=O)N2CCCCC2)c2cc(F)ccc21 (stereo not shown) [Test Compound 58, 5-[(1-piperidinyl)carbonylmethyl]-7-fluoro-1-[2-methoxy-4-(2-methylbenzoylamino)benzoyl]-2,3,4,5-tetrahydro-1H-benzazepine]
- IC50 [1]: 16 nM
- IC50 [2]: 95 nM

Structure (SMILES): COc1cc(NC(=O)c2ccccc2Br)ccc1C(=O)N1CCCC(CC(=O)N2CCC(NC(C)=O)CC2)c2cc(F)ccc21 (stereo not shown) [Test Compound 60, 5-[(4-Acetylamino-1-piperidinyl)carbonylmethyl]-7-fluoro-1-[2-methoxy-4-(2-bromobenzoylamino)benzoyl]-2,3,4,5-tetrahydro-1H-benzazepine]
- IC50 [1]: 10 nM
- IC50 [2]: 45 nM

Structure (SMILES): COc1cc(NC(=O)c2ccccc2C)ccc1C(=O)N1CCCC(CC(=O)N2CCN(C)CC2)c2cc(Cl)ccc21 (stereo not shown) [Test Compound 63, 5-[(4-Methyl-1-piperazinyl)carbonylmethyl]-7-chloro-1-[2-methoxy-4-(2-methylbenozylamino)benzoyl]-2,3,4,5-tetrahydro-1H-benzazepine]
- IC50 [1]: 10 nM
- IC50 [2]: 30 nM

Reference: patent US5244898A, “Benzoheterocyclic compounds” (Otsuka Pharmaceutical Co., Ltd., priority 1991, dated 1993)
